Measurements: patent US10632064B2, “Topical regional neuro affective therapy with cannabinoid combination products” (Afgin Pharma, LLC, priority 2015, dated 2020)
“Also recorded” adds a separate entry of the source.

Columns and labels:
[1] = system: human patient having a remote head injury, s/p 4 craniotomies and intractable seizures; assay: Example 7: topical cannabidiol 40 mg at the BONATH, intractable seizures, EEG; format: in vivo; details: cannabidiol 40 mg topical at BONATH
Experimental: The efficacy of a topical cannabidiol formulation was studied in a human patient having a remote head injury, s/p 4 craniotomies and intractable seizures. The patient was treated with cannabidiol 40 mg applied to the BONATH in a topical formulation. There was attenuation of associated focal EEG abnormalities.

[2] = system: person, cerebellar posterior fossa cyst, generalized seizure; assay: Example 13: 2% CBD cream to the nuchal region, absence seizures, EEG; format: in vivo, human
Experimental: In Example 13, person suffering from a cerebellar posterior fossa cyst, generalized seizure manifesting as standing and staring and unresponsive was treating in accordance with the present invention. FIG. 2 is an EEG showing a baseline EEG of the patient of Example 13. […] Previously, ethosuximide had been recommended for treatment, but the parents were reluctant to have the patient on a systemic […] therapy in view of the potential side effects. The patient was treated with a 2% CBD cream to the nuchal (back of the neck) region twice a day. After two weeks, the dosage regimen was changed to one application per day.

[3] = system: patient with stroke and focal seizures; assay: Example 16: 1 g of 1.6% CBD cream nuchal, stroke and focal seizures, EEG; format: in vivo, human
Experimental: In Example 16, a patient presented with stroke and focal seizures. […]. FIG. 9 is a baseline EEG taken at the initial examination, showing left fronto-central seizure focus.
The patient was treated with 1 g of 1.6% CBD cream to the nuchal (back of the neck). […] They were able to return to work as a beterinarian and do surgery, which was unexpected as their Rehab MD had previously advised them that we would have to retire.

[4] = twice a day CBD treatment to the nuchal region

## C=C(C)[C@@H]1CCC(C)=C[C@H]1c1c(O)cc(CCCCC)cc1O [CBD, cannabidiol]
[1]
  EEG post-treatment: the right fast activity and sharp waves were attenuated
[2]; 2% CBD cream to nuchal region twice a day
  clinical findings at the two week check-up: No seizures were noted; also recorded: no long bed wetting; also recorded: reading levels had increased two levels
[2]; 5 minutes after the start of therapy (FIG. 3)
  EEG post-treatment: attenuated seizure focus
[2]; 8 minutes after the start of therapy (FIG. 4)
  EEG post-treatment: further attenuation of seizure focus
[3]; 10 minutes after application of 1 g of 1.6% CBD cream (FIG. 10)
  EEG after CBD dose: attenuated seizure focus
[3]; [4]
  clinical result: remains seizure free; also recorded: helping their spastic weakness from the stroke
  time seizure free after initiation of treatment: about 9 months
